Assay results published in patent publication US20080039430A1, “Pharmaceutical Compositions For The Treatment Of Leishmaniasis” (priority 2004, published 2008).

Columns and labels:
LmSIR2 = molecular target: T1, LmSIR2 (Leishmania major, UniProt Q25337); test: NAD-dependent deacetylase activity in Leishmania extracts (pTEX-LmSIR2); type: biochemical; conditions: 5 mM NAm, 200 μM NAD
T1 construct: expressed in transfected cells; host or cells: Leishmania infantum (MHOM/MA/67/ITMAP-263) carrying pTEX-LmSIR2; NP40 lysate
T1 sequence (Q25337 whole entry): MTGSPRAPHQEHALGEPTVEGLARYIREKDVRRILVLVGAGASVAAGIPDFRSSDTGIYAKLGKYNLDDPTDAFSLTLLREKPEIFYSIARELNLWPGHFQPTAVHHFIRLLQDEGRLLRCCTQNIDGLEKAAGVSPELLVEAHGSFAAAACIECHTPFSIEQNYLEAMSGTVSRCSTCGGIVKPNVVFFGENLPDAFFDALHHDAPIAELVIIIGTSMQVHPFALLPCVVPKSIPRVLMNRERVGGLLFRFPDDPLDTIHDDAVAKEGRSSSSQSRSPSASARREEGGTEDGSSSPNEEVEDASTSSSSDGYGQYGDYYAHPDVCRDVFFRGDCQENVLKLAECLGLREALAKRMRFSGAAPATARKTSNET
Description: Having established a standard inhibitory assay, the effect of NAm was then examined on the NAD-dependent deacetylase activity contained in Leishmania extracts from mutant parasites carrying extra copies of LmSIR2 gene (pTEX-LmSIR2) or empty plasmid DNA (pTEX) (11).
Briefly, 2 10^5 parasites were collected and washed two times with PBS 0.01M pH 7.2 and incubated in a lysis solution (100 mM Tris-HCl, 150 mM NaCl, 1 mM EDTA, 1% NP40, 5 μM Trichostatin A, pH 8.8), cells were then centrifuged for 20 min at 10 000 rpm at 4° C. Deacetylase activity in the presence or absence of 200 μM NAD was measured. Results are expressed as relative F355/F460 counts=F355/F460 counts in the presence of NAD—F355/F460 counts in the absence of NAD. This allowed to discriminate between fluorescence due to the action of LmSIR2 to fluorescence due to the presence of compounds which could interfere with the test.

THP-1 monocytes = test: Growth and viability of THP-1 monocytes; type: cell-based; conditions: 3 days
Description: In a first series of experiments, THP-1 monocytes were incubated during 3 days with various concentrations of NAm and the growth and viability of cells were recorded. Up to 10 mM of NAm, no effect on cell growth and viability was observed. In contrast, 20 mM NAm inhibited the proliferation of THP-1 monocyte by about 45% in agreement with the values recorded for other cell types: SupT1 and PBLs cells (6).

[1] = test system: L. infantum promastigotes; test: Growth of promastigotes in axenic culture, viable parasites by FACs analysis; type: cell-based
Description: (§1) The growth of Leishmania amastigotes and promastigotes was followed in axenic culture conditions in the presence or absence of NAm.
(§2) A cloned line of L. infantum (MHOM/MA/67/ITMAP-263) was used in all experiments. Each subculture was initiated at 5×10^5 parasites/ml of medium. Axenically grown amastigote forms of L. infantum were maintained at 37° C. with 5% CO2 by weekly subpassages in a cell-free medium called MAA/20 (medium for axenically grown amastigotes) in 25-ml flasks, as previously described (10). Promastigote forms were maintained at 26° C. by weekly subpassage in SDM 79 medium supplemented with 10% foetal calf serum (FCS) and 100 units/ml penicillin and 100 μg/ml streptomycin. Nicotinamide (SIGMA, St Louis) was added at the appropriate concentration and the mean number of viable parasites determined using FACs analysis, as previously described (11).

axenic amastigote = test: YOPRO-1 positive (apoptotic) axenic amastigotes; type: cell-based, L. infantum
Description: After 24, 48 and 72 hours of incubation aliquots (10^6 parasites) were collected, washed and incubated for 10 min with 10 μM of YO[…], an apoptotic cell marker (Molecular probes). The mean percentage of YO[…] positive cells was determined as previously described (9).

[2] = patient treated with accelerated radiotherapy for head and Neck cancer; cited from earlier work
[3] = test system: L. infantum axenic amastigotes; test: Growth of axenically grown amastigotes, viable parasites by FACs analysis; type: cell-based
Description: as §1, §2

intracellular amastigote = test: Intracellular amastigote proliferation in THP-1 differentiated macrophages, parasitic index; type: cell-based, Leishmania infantum; conditions: for IC50: Leishmania infantum, THP-1, read-out: IC50, intracellular growth of Leishmania infantum
Description: Thus, THP-1 differentiated macrophages were infected with stationary phase amastigotes at a host cell-parasite ratio of 5:1. After 4 hours, non adherent parasites were removed and nicotinamide was added to the medium at the appropriate concentration. After 3 days of incubation time, cells were fixed with methanol and stained with giemsa. Parasitic index PI (mean percentage of infected macrophages X number of amastigotes per macrophage) was determined. […] At this concentration a reduction of almost 70% of PI was observed.

[4] = test system: L. infantum amastigotes which overexpress LmSIR2; test: NAm-induced death of amastigotes overexpressing LmSIR2; type: cell-based; conditions: FIGS. 3A and 3B, growth inhibition and YOPRO-1 positive cells
Description: To further examine the possible correlation between the level of SIR2 expression and the sensitivity/resistance to NAm-induced Leishmania amastigotes death, NAm was added to cultures of mutant L. infantum amastigotes which overexpress LmSIR2 or carrying the empty pTEX plasmid as controls.

SIRT1 = molecular target: T2, SIRT1 (Homo sapiens, UniProt Q96EB6); test: NAD-dependent deacetylase activity, cyclex SIR2 assay kit with SIRT1; type: biochemical
T2 construct: purchased MBL, Japan
T2 sequence (Q96EB6 1-747): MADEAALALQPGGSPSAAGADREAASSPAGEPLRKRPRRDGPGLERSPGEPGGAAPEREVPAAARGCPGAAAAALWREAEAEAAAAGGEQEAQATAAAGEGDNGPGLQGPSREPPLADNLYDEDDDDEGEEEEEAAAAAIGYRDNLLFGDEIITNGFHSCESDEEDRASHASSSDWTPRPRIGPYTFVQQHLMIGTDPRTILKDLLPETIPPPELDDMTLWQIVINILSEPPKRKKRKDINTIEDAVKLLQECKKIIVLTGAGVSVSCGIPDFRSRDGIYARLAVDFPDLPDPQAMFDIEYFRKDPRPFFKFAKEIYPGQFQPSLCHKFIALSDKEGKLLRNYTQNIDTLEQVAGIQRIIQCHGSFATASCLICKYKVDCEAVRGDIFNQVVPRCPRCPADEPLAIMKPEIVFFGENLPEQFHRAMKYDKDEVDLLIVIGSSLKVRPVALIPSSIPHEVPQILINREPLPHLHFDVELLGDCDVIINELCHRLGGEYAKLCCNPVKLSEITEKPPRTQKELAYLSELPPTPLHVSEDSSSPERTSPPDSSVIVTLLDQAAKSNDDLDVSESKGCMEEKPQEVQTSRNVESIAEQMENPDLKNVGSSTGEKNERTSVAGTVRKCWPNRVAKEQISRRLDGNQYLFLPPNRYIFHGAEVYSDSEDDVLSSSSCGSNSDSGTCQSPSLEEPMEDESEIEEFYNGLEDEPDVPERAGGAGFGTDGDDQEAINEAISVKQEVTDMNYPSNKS
Description: Therefore, complementary experiments were conducted in order to examine whether NAm could interfere with Leishmania deacetylase activity in vitro. To test this possibility, a commercially available “[…] SIR2 assay kit” and SIRT1 as a standard enzyme (MBL, Japan) were used.

[5] = test system: L. amazonsensis amastigotes; test: Growth inhibition of L. amazonsensis amastigotes; type: cell-based
Leishmania parasites = conditions: compared with NAm

Compound: NC(=O)c1cccnc1 [NAm, nicotinamide]
- NAD dependent deacetylase activity in parasites overexpressing LmSIR2 (LmSIR2): significantly inhibited
- inhibition at 20000 µM (THP-1 monocytes; Homo sapiens, THP-1, 72 h, 20 mM NAm, read-out: inhibition of proliferation of THP-1 monocyte): ~45%
- effect on cell growth and viability of THP-1 monocytes (THP-1 monocytes; up to 10 mM NAm): no effect
- growth of promastigotes ([1]; 20 mM NAm): a delay in the growth
- proliferation of promastigotes ([1]; FIG. 1A, 10 mM or 20 mM NAm): strongly inhibited
- leishmanicidal effect, YOPRO-1 positive cells (axenic amastigote; 100 mM NAm, after 3 days of culture (FIG. 1C)): Maximal effect
- leishmanicidal activity, occurrence of YOPRO-1 positive cells (axenic amastigote; concentrations higher than 25 mM, 24, 48 and 72 hours): strong dose-dependent leishmanicidal activity
- plasmatic concentration achievable [2]: 0.7 to 2.3 mM
- capacity of axenic amastigotes to proliferate ([3]; 20 mM NAm): virtually completely abrogated
- proliferation of amastigotes ([3]; FIG. 1B, 10 mM or 20 mM NAm): strongly inhibited
- inhibition of intracellular amastigote proliferation (intracellular amastigote; 2.5 mM NAm, vs control non treated cultures, p<0.05): significantly inhibit
- reduction of parasitic index (PI) (intracellular amastigote; 10 mM NAm, 3 days, THP-1 differentiated macrophages (maximal activity)): ~70%
- IC50 (intracellular amastigote): < 2500 µM
- resistance to NAm-induced death from extra copies of LmSIR2 [4]: did not confer significant resistance
- effect on enzymatic (deacetylase) activity of SIRT1 (SIRT1; 5 mM): almost completely abrogated
- effect on enzymatic (deacetylase) activity of SIRT1 (SIRT1; 20 mM): almost completely abrogated
- growth inhibitory activity on L. amazonsensis amastigotes [5]: sensitive

Compound: O=C(O)c1cccnc1 [NicotAc, nicotinic acid]
- growth inhibitory activity towards Leishmania parasites (Leishmania parasites): exerted a growth inhibitory activity towards Leishmania parasites, although at higher concentrations
- IC50 (intracellular amastigote): < 2500 µM
- effect on enzymatic (deacetylase) activity of SIRT1 (SIRT1; 5 mM): no significant effect
